Data on five compounds can be found in US5459132A, “N6-[(Imidazo[1,2-a]pyridin-3-yl)ethyl]adenosines, their 5'-uronamide analogues and pharmaceutical compositions” (Laboratoires UPSA, priority 1994, dated 1995).

One assay deals with Balbc 3T3 fibroblasts. The experiment in a line: Inhibition of the cell proliferation induced by a growth factor (PDGF) in Balbc 3T3 fibroblasts, ^3H-thymidine incorporation. It is filed as cell-based. To be noted: for % inhibition of the incorporation of ^3H-thymidine stimulated by PDGF, 1E-6M: test molecule 1E-6M. How it is done: Measurement of the inhibition of the cell proliferation induced by a growth factor in Balbc […] 3T3 fibroblasts
Inhibition of the cell proliferation induced by a growth factor (for example PDGF) is evaluated by measuring the incorporation of ^3 H-thymidine into Balbc 3T3 fibroblasts.
The Balbc 3T3 fibroblasts are cultivated at 37° C. with 5% of CO2 up to the point of subconfluence and are then placed for 18 hours under rest conditions in a serum-impoverished medium. They are subsequently pretreated for one hour with the test molecule (10^-5 M and/or 10^-6 M) and then stimulated for 22 hours with a growth factor (for example PDGF). ^3 H-Thymidine is incorporated over the last 2 hours. All these steps are performed at 37° C. with 5% of CO2.
The reaction is terminated by sucking off the reaction medium, detaching the cells and then filtering the lyzed cells through glass fiber filters.
The results are expressed as the percentage inhibition of the stimulation of ^3 H-thymidine incorporation induced by the growth factor.

A further assay relates to mice. The experiment in a line: Phenylbenzoquinone test (analgesic activity). In kind it is in vivo. The note with it: one hour before phenylbenzoquinone injection, 5 minutes observation. The procedure: 2. Phenylbenzoquinone test
The intraperitoneal injection of phenylbenzoquinone causes twisting and stretching movements in mice. Analgesics prevent or reduce this syndrome, which can be considered as the exteriorization of diffuse abdominal pain.
A 0.02% solution of phenylbenzoquinone in water is administered in a volume of 1 ml/100 g.
The products of the Examples are administered orally one hour before the injection of phenylbenzoquinone.
The stretching and twisting movements are counted for each mouse over an observation period of 5 minutes.

The structures appear in SMILES notation.

With `Cc1ccc(C)c(COc2cccn3c(CCNc4ncnc5c4ncn5[C@@H]4O[C@H](C(=O)NC5CC5)[C@@H](O)[C@H]4O)c(C)nc23)c1` [Example 36, β-D-Ribofuranuronamido-N-cyclopropy-1-deoxy-1-[6-[[2-[[8-(2,5-dimethylphenyl)methoxy]-2-methylimidazo[1,2-a]pyridin-3-yl]ethyl]amino]-9H-purin-9-yl]], in the assay on Balbc 3T3 fibroblasts, the “% inhibition of the incorporation of ^3H-thymidine stimulated by PDGF, 1E-6M” value amounted to 80%. For the same compound, in the assay with mice, the “Phenylbenzoquinone test % inhibition at 30 mg/kg p.o.” value is 63%. On to `O=C(NC1CC1)[C@H]1O[C@@H](n2cnc3c(NCCc4cnc5c(OCc6ccccc6)cccn45)ncnc32)[C@H](O)[C@@H]1O` [Example 33, β-D-Ribofuranuronamido-N-cyclopropyl-1-deoxy-1-[6-[[2-[8-(phenylmethoxy)imidazo[1,2-a]pyridin-3-yl]ethyl]amino]-9H-purin-9-yl]], for which the “Phenylbenzoquinone test % inhibition at 30 mg/kg p.o.” value with mice is reported as 39%. Take `O=C(NC1CC1)[C@H]1O[C@@H](n2cnc3c(NCCc4cnc5c(OC6CCCC6)cccn45)ncnc32)[C@H](O)[C@@H]1O` [Example 37, β-D-Ribofuranuronamido-N-cyclopropyl-1-deoxy-1-[6-[[2-[8-(cyclopentoxy)imidazo[1,2-a]pyridin-3-yl]ethyl]amino]-9H-purin-9-yl]]: the “% inhibition of the incorporation of ^3H-thymidine stimulated by PDGF, 1E-5M” value with Balbc 3T3 fibroblasts (test molecule 1E-5M) amounted to 63%. In the assay with mice, the “Phenylbenzoquinone test % inhibition at 30 mg/kg p.o.” value worked out at 57%. As to `COCCOc1cccn2c(CCNc3ncnc4c3ncn4[C@@H]3O[C@H](C(=O)NC4CC4)[C@@H](O)[C@H]3O)cnc12` [Example 35, β-D-Ribofuranuronamido-N-cyclopropyl-1-deoxy-1-[6-[[2-[8-(2-methoxyethoxy)imidazo[1,2-a]pyridin-3-yl]ethyl]amino]-9H-purin-9-yl]], the “Phenylbenzoquinone test % inhibition at 30 mg/kg p.o.” value in the assay with mice was 25%. Regarding `Cc1ccc(C)c(COc2cccn3c(CCNc4ncnc5c4ncn5[C@@H]4O[C@H](C(=O)NC5CC5)[C@@H](O)[C@H]4O)cnc23)c1` [Example 34, β-D-Ribofuranuronamido-N-cyclopropyl-1-deoxy-1-[6-[[2-[[8-(2,5-dimethylphenyl)methoxy]imidazo[1,2-a]pyridin-3-yl]ethyl]amino]-9H-purin-9-yl]], the “% inhibition of the incorporation of ^3H-thymidine stimulated by PDGF, 1E-6M” value in the assay with Balbc 3T3 fibroblasts stood at 72%. Moreover, in the assay on mice, the “Phenylbenzoquinone test % inhibition at 30 mg/kg p.o.” value was determined as 57%.
